Earlier results in patent US8871945B2, “Process for preparation of rufinamide” (priority 2010, dated 2014).

How the values were obtained:
sodium channels [1] = conditions: Rufinamide ≧1 μM; after a prolonged prepulse; cultured cortical neurons
sodium channels [2] = conditions: cultured cortical neurons; read-out: EC50 for limiting sustained repetitive firing of sodium-dependent action potentials

In the case of `NC(=O)c1cn(Cc2c(F)cccc2F)nn1` [Rufinamide, 1-(2,6-difluorobenzyl)-1H-1,2,3-triazole-4-carboxamide], the “sodium channel recovery from inactivation” value (sodium channels [1]) is listed as “significantly slowed” and the EC50 (sodium channels [2]) is listed as 3.8 µM.
